The test addresses T1, human CB1 receptor (Homo sapiens, UniProt P21554).
T1 construct: expressed in transfected cells; membranes
Kind of test: Cannabinoid Receptor-1 functional assay: inhibition of CP55940-induced [35S]GTPγS binding to membranes of CHO-K1 cells expressing human CB1. It counts as biochemical. To be noted: 3 nM CP55940, hCB1 membranes, [35S]GTPγS SPA; read-out: IC50 value for antagonizing a CB1 receptor agonist. The text has this:
Transfection and Cell Culture—The cDNA encoding the human CB1 (Cannabinoid Receptor-1) receptor (GenBank accession number NM_016083) was cloned from a human adipose tissue cDNA library and cloned into the eukaryotic expression vector pcDNA3.1 (Invitrogen).
Chinese Hamster Ovary cells (CHO-K1) stably expressing recombinant human CB1 were generated by transfecting the plasmid containing the coding sequence of the human CB1 receptor in CHO-K1 cells, using lipofectamin, according to the manufacturer instructions. Resistant clones were selected in the presence of 600 μg/ml G418 (Life technology). Stably transfected CHO-K1 cells were maintained in Ham's F-12 culture medium (Invitrogen), supplemented with 10% fetal calf serum (Invitrogen), 100 U/ml penicillin, 100 μg/ml streptomycin (Life Technology), and 600 μg/ml G418.
Cannabinoid Receptor-1 Functional Assay.
Functional activities of the above examples of compounds of the invention were assessed in vitro by measuring their ability to inhibit CP55940-induced [^35S]GTPγS binding to membranes prepared from CHO-K1 cells expressing the human CB1 receptor (described in Transfection and Cell Culture). CP55940 is a well known non-selective CB1 and CB2 receptor agonist (e.g Felder et al., 1995, Molecular Pharmacology, (48) 443-50). Membranes were prepared by a standard procedure. Briefly, cells were harvested using 10 mM EDTA and collected by centrifugation. Pelleted cells were homogenized in ice-cold 20 mM Hepes (pH 7.4),10 mM EDTA and protease inhibitors (Complete protease inhibitor cocktail tablet, Roche) using an Ultra Turrax Homogenizer. The homogenate was centrifuged at 14 000 rpm for 45 min. at 4° C. The resultant pellet was resuspended in the same buffer but with only 0.1 mM EDTA and was again centrifuged at 14 000 rpm for 45 min. at 4° C. The resulting pellet (membranes) was resuspended in 20 mM Hepes (pH 7.4), 0.1 mM EDTA, 2 mM MgCl2 and protease inhibitors and protein concentration was determined by Micro BCA Protein Assay Reagent Kit (Pierce Biotechnology) according to the manufacturer instructions. The [^35S]GYPγS SPA (Scintillation Proximity Assay) binding assay was performed by incubating 5 μg/well hCB1-membranes with 1 nM [^35S]GYPγS (Perkin Elmer—NEG 030H) in the presence of 3 nM of CP55940 and various concentrations of the test compounds at room temperature for 1 hr in 96-well microtiter plates. 0.4 mg/well SPA beads (PVT-WGA; RPNQ0001 Amersham Pharmacia Biotech) were then added and the incubation continued for further 30 min. on an orbital shaker. The assay buffer contained 50 mM HEPES (pH 7.5), 50 mM NaCl, 2.5 mM MgCl2, 0.1% BSA, 1 μM GDP and 100 μg/ml Saponin. Microtiter plates were centrifuged at 1500 rpm for 5 min. and radioactivity was read immediately using a Topcounter (PerkinElmer Life Sciences). Data were analyzed and IC50 values determined by non-linear regression using the Prism software (GraphPad Software, San Diego).

T1 sequence (P21554 whole entry): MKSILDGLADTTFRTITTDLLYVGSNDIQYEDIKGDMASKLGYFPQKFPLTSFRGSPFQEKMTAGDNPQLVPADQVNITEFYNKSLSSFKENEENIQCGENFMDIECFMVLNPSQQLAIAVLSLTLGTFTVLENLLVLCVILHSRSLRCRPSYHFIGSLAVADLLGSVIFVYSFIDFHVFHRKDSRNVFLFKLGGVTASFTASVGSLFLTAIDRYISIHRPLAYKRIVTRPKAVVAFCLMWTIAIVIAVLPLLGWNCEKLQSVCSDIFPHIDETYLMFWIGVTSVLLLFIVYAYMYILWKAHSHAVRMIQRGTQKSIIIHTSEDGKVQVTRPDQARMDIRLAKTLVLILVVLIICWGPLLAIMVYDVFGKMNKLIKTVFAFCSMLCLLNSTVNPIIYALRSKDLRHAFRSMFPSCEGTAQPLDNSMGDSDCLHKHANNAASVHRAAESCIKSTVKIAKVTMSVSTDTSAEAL

Usually IC50 stands for the midpoint of a concentration-inhibition curve. With `C[C@@H](NC(=O)c1nn(-c2ccccc2Cl)c(-c2ccc(Cl)cc2)c1Cc1nnn[nH]1)c1cccc(Cl)c1` [[2.25], 1-(2-Chloro-phenyl)-5-(4-chloro-phenyl)-4-(1H-tetrazol-5-ylmethyl)-1H-pyrazole-3-carboxylic acid [(R)-1-(3-chloro-phenyl)-ethyl]-amide], the IC50 was less than 300 nM.
Regarding `C[C@H](c1ccc(OC(F)(F)F)cc1)N(C)C(=O)c1nn(-c2ccccc2Cl)c(-c2ccc(Cl)cc2)c1CC(=O)O` [[1.9], (1-(2-Chloro-phenyl)-5-(4-chloro-phenyl)-3-{methyl-[(R)-1-(4-trifluoromethoxy-phenyl)-ethyl]-carbamoyl}-1H-pyrazol-4-yl)-acetic acid], the IC50 was less than 300 nM.
Next, `CC(NC(=O)c1nn(-c2ccccc2Cl)c(-c2ccc(Cl)cc2)c1Cc1nnn[nH]1)c1ccc(C(F)(F)F)c(F)c1` (stereo not shown) [[2.10], 5-(4-Chloro-phenyl)-1-(2-chloro-phenyl)-4-(1H-tetrazol-5-ylmethyl)-1H-pyrazole-3-carboxylic acid [1-(3-fluoro-4-trifluoromethyl-phenyl)-ethyl]-amide]: less than 300 nM.
Turning to `C[C@@H](NC(=O)c1nn(-c2ccccc2Cl)c(-c2ccc(Cl)cc2)c1CC(=O)O)c1ccc(C(F)(F)F)cc1` [[1.5], {1-(2-Chloro-phenyl)-5-(4-chloro-phenyl)-3-[(R)-1-(4-trifluoromethyl-phenyl)-ethylcarbamoyl]-1H-pyrazol-4-yl}-acetic acid], the IC50 was less than 300 nM.
Next, `C[C@H](Oc1c(C(=O)N[C@H](C)c2ccc(Br)cc2)nn(-c2ccccc2Cl)c1-c1ccc(Cl)cc1)C(=O)O` [[1.2], (S)-2-[3-[(R)-1-(4-Bromo-phenyl)-ethylcarbamoyl]-1-(2-chloro-phenyl)-5-(4-chloro-phenyl)-1H-pyrazol-4-yloxy]-propionic acid]: 300 to 3000 nM; `C[C@H](c1ccc(C(F)(F)F)cc1)N(C)C(=O)c1nn(-c2ccccc2Cl)c(-c2ccc(Cl)cc2)c1C(O)C(=O)O` (stereo partly drawn) [Compound [1.12], (1-(2-Chloro-phenyl)-5-(4-chloro-phenyl)-3-{methyl-[(R)-1-(4-trifluoromethyl-phenyl)-ethyl]-carbamoyl}-1H-pyrazol-4-yl)-2-hydroxyacetic acid]: less than 300 nM; `C[C@@H](NC(=O)c1nn(-c2ccccc2Cl)c(-c2ccc(Cl)cc2)c1Cc1nnn[nH]1)c1ccc(F)cc1` [[2.8], 1-(2-Chloro-phenyl)-5-(4-chloro-phenyl)-4-(1H-tetrazol-5-ylmethyl)-1H-pyrazole-3-carboxylic acid [(R)-1-(4-fluoro-phenyl)-ethyl]-amide]: less than 300 nM.
The same measure for `CC(C)(NC(=O)c1nn(-c2ccccc2Cl)c(-c2ccc(Cl)cc2)c1CC(=O)O)c1ccc(F)cc1` [Compound [1.1], {1-(2-Chloro-phenyl)-5-(4-chloro-phenyl)-3-[1-(4-fluoro-phenyl)-1-methyl-ethylcarbamoyl]-1H-pyrazol-4-yl}-acetic acid]: less than 300 nM; for `CC(NC(=O)c1nn(-c2ccccc2Cl)c(-c2ccc(Cl)cc2)c1Cc1nn[nH]n1)c1ccc(Cl)c(F)c1` (stereo not shown) [[2.19], 5-(4-Chloro-phenyl)-1-(2-chloro-phenyl)-4-(2H-tetrazol-5-ylmethyl)-1H-pyrazole-3-carboxylic acid [1-(4-chloro-3-fluoro-phenyl)-ethyl]-amide]: less than 300 nM; for `C[C@@H](NC(=O)c1nn(-c2ccccc2Cl)c(-c2ccc(Cl)cc2)c1Cc1nn[nH]n1)c1ccc(Br)cc1` [[2.3], 1-(2-Chloro-phenyl)-5-(4-chloro-phenyl)-4-(1H-tetrazol-5-ylmethyl)-1H-pyrazole-3-carboxylic acid [(R)-1-(4-bromo-phenyl)-ethyl]-amide]: less than 300 nM.
Next, `C[C@H](c1ccc(F)c(Cl)c1)N(C)C(=O)c1nn(-c2ccccc2Cl)c(-c2ccc(Cl)cc2)c1Cc1nnn[nH]1` [[2.28], 1-(2-Chloro-phenyl)-5-(4-chloro-phenyl)-4-(1H-tetrazol-5-ylmethyl)-1H-pyrazole-3-carboxylic acid methyl-[(R)-1-(3-chloro-4-fluoro-phenyl)-ethyl]-amide]: less than 300 nM.
Consider `CC(C)(Cc1ccccc1)NC(=O)c1nn(-c2ccccc2Cl)c(-c2ccc(Cl)cc2)c1Cc1nnn[nH]1` [[2.2], 1-(2-Chloro-phenyl)-5-(4-chloro-phenyl)-4-(1H-tetrazol-5-ylmethyl)-1H-pyrazole-3-carboxylic acid (1,1-dimethyl-2-phenyl-ethyl)-amide], for which the half-inhibitory concentration (IC50) was less than 300 nM.
Next, `C[C@H](c1ccc(OC(F)(F)F)cc1)N(C)C(=O)c1nn(-c2ccccc2Cl)c(-c2ccc(Cl)cc2)c1Cc1nnn[nH]1` [[2.27], 1-(2-Chloro-phenyl)-5-(4-chloro-phenyl)-4-(1H-tetrazol-5-ylmethyl)-1H-pyrazole-3-carboxylic acid methyl-[(R)-1-(4-trifluoromethoxy-phenyl)-ethyl]-amide]: less than 300 nM; `C[C@@H](NC(=O)c1nn(-c2ccccc2Cl)c(-c2ccc(Cl)cc2)c1OCc1nnn[nH]1)c1ccc(C(F)(F)F)cc1` [Compound [3.1], 1-(2-Chloro-phenyl)-5-(4-chloro-phenyl)-4-(1H-tetrazol-5-ylmethoxy)-1H-pyrazole-3-carboxylic acid [(R)-1-(4-trifluoromethyl-phenyl)-ethyl]-amide]: less than 300 nM; `CC(NC(=O)c1nn(-c2ccccc2Cl)c(-c2ccc(Cl)cc2)c1Cc1nnn[nH]1)c1cc(F)cc(F)c1` (stereo not shown) [[2.18], 1-(2-Chloro-phenyl)-5-(4-chloro-phenyl)-4-(1H-tetrazol-5-ylmethyl)-1H-pyrazole-3-carboxylic acid [1-(3,5-difluoro-phenyl)-ethyl]-amide]: less than 300 nM.
The same measure for `CC(c1ccc(S(C)(=O)=O)cc1)N(C)C(=O)c1nn(-c2ccccc2Cl)c(-c2ccc(Cl)cc2)c1CC(=O)O` (stereo not shown) [[1.8], (1-(2-Chloro-phenyl)-5-(4-chloro-phenyl)-3-{methyl-[1-(4-methylsufonyl-phenyl)-ethyl]-carbamoyl}-1H-pyrazol-4-yl)-acetic acid]: 300 to 3000 nM; for `CCC(NC(=O)c1nn(-c2ccccc2Cl)c(-c2ccc(Cl)cc2)c1Cc1nnn[nH]1)c1ccc(C(F)(F)F)cc1` (stereo not shown) [[2.15], 1-(2-Chloro-phenyl)-5-(4-chloro-phenyl)-4-(1H-tetrazol-5-ylmethyl)-1H-pyrazole-3-carboxylic acid [1-(4-trifluoromethyl-phenyl)propyl]-amide]: less than 300 nM; for `C[C@@H](NC(=O)c1nn(-c2ccccc2Cl)c(-c2ccc(Cl)cc2)c1Cc1nn[nH]n1)c1ccc(C(F)(F)F)cc1` [[2.6], 5-(4-Chloro-phenyl)-1-(2-chloro-phenyl)-4-(2H-tetrazol-5-ylmethyl)-1H-pyrazole-3-carboxylic acid [(R)-1-(4-trifluoromethyl-phenyl)-ethyl]-amide]: less than 300 nM.
The same measure for `C[C@@H](NC(=O)c1nn(-c2ccccc2Cl)c(-c2ccc(Cl)cc2)c1Cc1nnn[nH]1)c1ccc(Cl)cc1` [[2.9], 1-(2-Chloro-phenyl)-5-(4-chloro-phenyl)-4-(1H-tetrazol-5-ylmethyl)-1H-pyrazole-3-carboxylic acid [(R)-1-(4-chloro-phenyl)-ethyl]-amide]: less than 300 nM.

These data come from US8124634B2, “CB1 receptor modulators” (7TM Pharma A/S, priority 2006, dated 2012).
